Measurements from article PMC9481570, “A small molecule antagonist of SMN disrupts the interaction between SMN and RNAP II” (Nature Communications, 2022).

Molecular target: T1, tandem Tudor domain (TTD) of UHRF1 (Homo sapiens, UniProt Q96T88)
T1 construct: UHRF1 (aa 126–285); His (N, cleaved yes); made in house; host or cells: E. coli BL21 (DE3) Codon plus RIL
Assay: Fluorescein polarization-based peptide displacement screen
Assay type: binding
Settings: 2 mM compound, 8 μM UHRF1 TTD, 40 nM FITC-H3K9me3 peptide; hit = signal less than 50% of negative control
Protocol: A small molecule fragment library with 2040 compounds was screened against TTD of UHRF1 by fluorescein polarization-based peptide displacement assay according to previous reports. Briefly, the screening was performed in 10 μL at a protein concentration of 8 μM premixed with a 40 nM FITC-labeled H3K9me3 peptide (aa 1–25, Tufts University Core Services), and then adding a single concentration of 2 mM compound in a buffer of 20 mM Tris-HCl, pH 8.8, 50 mM NaCl, and 0.01% Triton X-100. The hits were further confirmed by dose response analysis with 1 mM as the highest concentration with 11 sequential 2-fold dilutions. All the assays were performed in duplicate in 384-well plates (Greiner, 784290), using the Synergy 4 microplate reader (BioTek), with an excitation wavelength of 485 nm and an emission wavelength of 528 nm. Data were corrected by background of the free labeled peptides and analyzed by GraphPad Prism version 5 software. […]
Tris -HCl, pH 8.8, 50 mM NaC l, and 0.01% Triton X - 100. […] All the assays were performed in duplicate in 384 -well plates (Greiner, 784290), usi ng the Synergy 4 microplate reader (BioTek), with an excitation wavelength of 485 nm and an emission wavelength of 528 nm. Data were corrected by background of the free labeled peptides and analyzed by GraphPad […]
Detection instrument and software Synergy 4 microplate reader (BioTek), GraphPad […]

T1 sequence (Q96T88 126-285): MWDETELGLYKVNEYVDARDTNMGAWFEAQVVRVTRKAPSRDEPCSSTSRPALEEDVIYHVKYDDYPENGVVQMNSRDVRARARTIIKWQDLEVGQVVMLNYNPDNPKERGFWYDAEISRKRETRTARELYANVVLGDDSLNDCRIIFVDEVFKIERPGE

Structure (SMILES): Cn1c2c(c(=N)c3c1CCC3)CCC2 [Compound 1, 4-methyl-2,3,4,5,6,7-hexahydrodicyclopenta[b,e]pyridin-8(1H)-imine]
- outcome of fragment screen: hit
